The record followed here is patent US20240246941A1, “SUBSTITUTED 4-(3-AMINOPROP-1-YL)AMINOQUINOLINE ANALOGS AS MODULATORS OF MELANOMA-ASSOCIATED ANTIGEN 11 UBIQUITIN LIGASE” (ST. JUDE CHILDREN'S RESEARCH HOSPITAL, INC., priority 2020, published 2024).

This experiment concerns the target interaction between GST-MAGEA11 MHD and FAM-PCF11_4 peptide (MAGE-A11:PCF11) (Homo sapiens (Human), UniProt P43364). Briefly: TR-FRET dose response competition assay for disruption of MAGE-A11:PCF11 binding. In a few lines:
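Competition TR-FRET at room temperature in 50 mM Tris pH 7.5, 20 mM MgCl2, 0.1 mg/ml BSA, 1 mM DTT: final 5 nM GST-MAGEA11 MHD, 5 nM Tb-anti-GST, 200 nM FAM-PCF11_4, 90 min. Ratio 520/490 nm converted to % inhibition; IC50 from sigmoidal fit.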
(In TR-FRET formats the signal depends on donor and acceptor labels being close together.)

The mark [1] stands for this setting: Table 8, representative compounds, read-out: TR-FRET IC50.
Setting [2] is: Dose response TR-FRET screening of nine scaffold groups against MAGE-A11:PCF11, read-out: consensus IC50.
Where [3] appears, read: Table 5, dose response TR-FRET screening of 59 quinoline compounds against MAGE-A11:PCF11, read-out: TR-FRET IC50.

Read-outs that look alike come from different tables or passages of the source. Some results are limits rather than exact numbers.

interaction between GST-MAGEA11 MHD and FAM-PCF11_4 peptide (MAGE-A11:PCF11), sequence (P43364 218-429): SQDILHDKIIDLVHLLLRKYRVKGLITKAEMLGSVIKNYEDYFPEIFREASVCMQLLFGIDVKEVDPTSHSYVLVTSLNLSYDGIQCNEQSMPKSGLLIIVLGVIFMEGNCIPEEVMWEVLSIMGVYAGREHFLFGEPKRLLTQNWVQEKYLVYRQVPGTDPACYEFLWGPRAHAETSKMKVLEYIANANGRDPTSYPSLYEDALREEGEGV

In general, IC50 refers to the concentration needed to halve the response being measured. On to `COc1ccc(F)c(CNCCCNc2ccnc3cc(C(F)(F)F)ccc23)c1` [SJ000521058], for which, under setting [1], the concentration for half-maximal inhibition (IC50) was 69.9 µM. On to `Fc1cccc(C(F)(F)F)c1CNCCCNc1ccnc2cc(C(F)(F)F)ccc12` [SJ000521059-1], for which the IC50 under setting [2] stood at 69.9 µM. As to `Fc1cccc(C(F)(F)F)c1CNCCCNc1ccnc2cc(C(F)(F)F)ccc12` [SJ000521059], under setting [1], the IC50 is 69.9 µM.

For `FC(F)(F)c1ccc2c(NCCCNCc3cc4ccccc4s3)ccnc2c1` [SJ000521060-1], under setting [3], the IC50 is more than 70 µM. With `FC(F)(F)c1ccc2c(NCCCNCc3csc4ccccc34)ccnc2c1` [SJ000521061-1], the IC50 under setting [3] is more than 70 µM.

As for `COc1ccc(OC(F)(F)F)cc1CNCCCNc1ccnc2cc(C(F)(F)F)ccc12` [SJ000521063-1], the IC50 under setting [2] worked out at 69.9 µM. As for `COc1ccc(OC(F)(F)F)cc1CNCCCNc1ccnc2cc(C(F)(F)F)ccc12` [SJ000521063], under setting [1], the IC50 stood at 69.9 µM.

As for `COc1ccc(C(F)(F)F)cc1CNCCCNc1ccnc2cc(C(F)(F)F)ccc12` [SJ000521064-1], under setting [2], the IC50 turned out to be 69.1 µM.

As to `COc1ccc(C(F)(F)F)cc1CNCCCNc1ccnc2cc(C(F)(F)F)ccc12` [SJ000521064], the IC50 under setting [1] is 69.1 µM. Turning to `Fc1cccc(CNCCCNc2ccnc3cc(C(F)(F)F)ccc23)c1` [SJ000521066-1], under setting [2], the IC50 amounted to 69.9 µM. In the case of `Fc1cccc(CNCCCNc2ccnc3cc(C(F)(F)F)ccc23)c1` [SJ000521066], under setting [1], the IC50 is 69.9 µM.

`CCc1ccc(CNCCCNc2ccnc3cc(C(F)(F)F)ccc23)cc1` [SJ000521067-1]: the IC50 under setting [2] came to 40.9 µM. Consider `CCc1ccc(CNCCCNc2ccnc3cc(C(F)(F)F)ccc23)cc1` [SJ000521067], for which, under setting [1], the 50% inhibitory concentration (IC50) was determined as 40.9 µM. As to `Fc1ccc(CN(CCCCNc2ccnc3cc(Cl)ccc23)Cc2ccccc2)cc1` [SJ000522725-1], the IC50 under setting [3] was more than 70 µM. Turning to `CCCN(CCCNc1c2ccc(Cl)cc2nc2ccc(OC)cc12)Cc1ccc2[nH]ccc2c1` [SJ000522732-2], the half-inhibitory concentration (IC50) under setting [3] was more than 70 µM. In the case of `CCCN(CCCNc1ccnc2cc(Cl)ccc12)Cc1ccc2[nH]ccc2c1` [SJ000522746-2], the IC50 under setting [3] is 2.8 µM.

On to `CCCN(CCCNc1ccnc2cc(Cl)ccc12)Cc1c(C)cc(C)cc1C` [SJ000522749-1], for which the IC50 under setting [3] is more than 70 µM. On to `CCCN(CCCNc1ccnc2cc(Cl)ccc12)Cc1ccc(CC)cc1` [SJ000523001-1], for which the IC50 under setting [3] was more than 70 µM. With `CCCN(CCCNc1ccnc2cc(Cl)ccc12)Cc1cc(C(F)(F)F)ccc1OC` [SJ000523012-1], under setting [3], the IC50 was more than 70 µM.

As for `CCCN(CCCNc1c2ccc(Cl)cc2nc2ccc(OC)cc12)Cc1c(Cl)ccc(Cl)c1Cl` [SJ000523021-1], the IC50 under setting [3] was more than 70 µM. For the molecule `CCCN(CCCNc1ccnc2cc(Cl)ccc12)Cc1ccc(-c2ccccc2)cc1` [SJ000523039-1], the IC50 under setting [3] was more than 70 µM. As to `CCCN(CCCNc1ccnc2cc(Cl)ccc12)Cc1ccc2ccccc2c1` [SJ000523040-1], the IC50 under setting [3] was more than 70 µM. For the molecule `CN(C)c1ccc(CNCCCNc2ccnc3cc(Cl)ccc23)c2ccccc12` [SJ000523054-1], under setting [2], the IC50 was 69.9 µM. Regarding `Nc1ccccc1CNCCCNc1ccnc2cc(Cl)ccc12` [SJ000523055-1], the IC50 under setting [2] turned out to be 69.9 µM.

For the molecule `Nc1ccccc1CNCCCNc1ccnc2cc(Cl)ccc12` [SJ000523055], the IC50 under setting [1] stood at 69.9 µM. For the molecule `Clc1ccc2c(NCCCNCc3ccc4c(c3)OCO4)ccnc2c1` [SJ000523056-1], the IC50 under setting [2] was 69.9 µM. `Clc1ccc2c(NCCCNCc3ccc4c(c3)OCO4)ccnc2c1` [SJ000523056]: the IC50 under setting [1] turned out to be 69.9 µM.

On to `COc1ccc(CNCCCNc2ccnc3cc(Cl)ccc23)cc1` [SJ000523059-1], for which the IC50 under setting [2] was 69.9 µM. Turning to `COc1ccc(CNCCCNc2ccnc3cc(Cl)ccc23)cc1` [SJ000523059], under setting [1], the IC50 came to 69.9 µM.

As to `Fc1ccccc1CNCCCNc1ccnc2cc(Cl)ccc12` [SJ000523060-1], the IC50 under setting [2] was 69.9 µM. Turning to `Fc1ccccc1CNCCCNc1ccnc2cc(Cl)ccc12` [SJ000523060], under setting [1], the IC50 amounted to 69.9 µM. With `Fc1cccc(CNCCCNc2ccnc3cc(Cl)ccc23)c1` [SJ000523061-1], the IC50 under setting [2] is 69.9 µM. Turning to `Fc1cccc(CNCCCNc2ccnc3cc(Cl)ccc23)c1` [SJ000523061], the IC50 under setting [1] was found to be 69.9 µM. For `Fc1ccc(CNCCCNc2ccnc3cc(Cl)ccc23)cc1` [SJ000523062-1], the IC50 under setting [2] is 69.9 µM. For the molecule `Fc1ccc(CNCCCNc2ccnc3cc(Cl)ccc23)cc1` [SJ000523062], under setting [1], the IC50 came to 69.9 µM.

Regarding `N#Cc1cccc(CNCCCNc2ccnc3cc(Cl)ccc23)c1` [SJ000523063-1], the IC50 under setting [2] is 69.9 µM. Regarding `N#Cc1cccc(CNCCCNc2ccnc3cc(Cl)ccc23)c1` [SJ000523063], the half-inhibitory concentration (IC50) under setting [1] turned out to be 69.9 µM.

As for `Clc1ccc2c(NCCCNCc3ccc(-c4ccccc4)cc3)ccnc2c1` [SJ000523064-1], the IC50 under setting [2] came out at 34.9 µM.

Consider `Clc1ccc2c(NCCCNCc3ccc(-c4ccccc4)cc3)ccnc2c1` [SJ000523064], for which, under setting [1], the IC50 turned out to be 34.9 µM.

Consider `Clc1ccc2c(NCCCNCc3ccc4ccccc4c3)ccnc2c1` [SJ000523065-1], for which the half-inhibitory concentration (IC50) under setting [2] worked out at 69.9 µM. On to `Clc1ccc2c(NCCCNCc3ccc4ccccc4c3)ccnc2c1` [SJ000523065], for which the IC50 under setting [1] came out at 69.9 µM. As for `Cc1cccc(CNCCCNc2ccnc3cc(Cl)ccc23)c1` [SJ000523066-1], the IC50 under setting [2] came out at 69.9 µM.

Regarding `Cc1cccc(CNCCCNc2ccnc3cc(Cl)ccc23)c1` [SJ000523066], the IC50 under setting [1] was determined as 69.9 µM.

Regarding `COC(=O)c1ccc(CNCCCNc2ccnc3cc(Cl)ccc23)cc1` [SJ000523067-1], the IC50 under setting [2] was 69.9 µM. On to `COC(=O)c1ccc(CNCCCNc2ccnc3cc(Cl)ccc23)cc1` [SJ000523067], for which the IC50 under setting [1] is 69.9 µM.

In the case of `Clc1cccc(-c2ccc(CNCCCNc3ccnc4cc(Cl)ccc34)o2)c1` [SJ000523069-1], the IC50 under setting [3] was more than 70 µM.

In the case of `CCCN(CCCNc1ccnc2cc(C(F)(F)F)ccc12)Cc1ccccc1OC` [SJ000523072-1], the IC50 under setting [3] is more than 70 µM. Regarding `CCCCCCN(CCC)CCCNc1ccnc2cc(C(F)(F)F)ccc12` [SJ000523083-1], under setting [3], the IC50 is more than 70 µM. As for `CCCN1C(=O)c2ccccc2NC1c1ccc(Cl)cc1` (stereo not drawn) [SJ000550608-1], the IC50 under setting [2] is 69.9 µM. As to `CCn1c2ccccc2c2cc(CNC3CCCCC3)ccc21` [SJ000550865-1], the IC50 under setting [2] was determined as 69.9 µM. The same measure, in the same setting: for `CCn1c2ccccc2c2cc(CN3CCCC(O)C3)ccc21` (stereo not drawn) [SJ000550874-1] the value was 69.9 µM; for `O=C1c2ccccc2NC(c2ccc(Cl)cc2Cl)N1Cc1ccccc1` (stereo not drawn) [SJ000551164-1], 69.9 µM; for `CCCN1C(=O)c2ccccc2NC1c1cc(OC)c(OC)c(OC)c1` (stereo not drawn) [SJ000551165-1], 69.9 µM. As for `O=C1c2ccccc2NC(c2ccc(Cl)c(Cl)c2)N1Cc1ccccc1` (stereo not drawn) [SJ000551208-1], the IC50 under setting [2] was determined as 69.9 µM. Same read-out and setting: for `COc1ccc(C2Nc3ccccc3C(=O)N2Cc2ccccc2)cc1` (stereo not drawn) [SJ000551209-1] the value was 69.9 µM.

Take `CCOc1ccc(N(C(C)=O)C2=C(N)C(=O)c3ccccc3C2=O)cc1` [SJ000558312-2]: the IC50 under setting [2] worked out at 65.7 µM.

In the case of `NC1=C(Nc2ccccc2)C(=O)c2ccccc2C1=O` [SJ000562543-1], the IC50 under setting [2] is 60.8 µM.

On to `Cc1ccccc1NC1=C(N)C(=O)c2ccccc2C1=O` [SJ000562551-1], for which the IC50 under setting [2] worked out at 72.2 µM. With `Cc1ccc(NC2=C(N)C(=O)c3ccccc3C2=O)cc1` [SJ000562618-1], under setting [2], the IC50 is 60.6 µM.

On to `CCCCCCCCOc1ccc(NC2=C(N)C(=O)c3ccccc3C2=O)cc1` [SJ000562629-1], for which the IC50 under setting [2] turned out to be 54.8 µM.
